System: recombinant NL4-3 virus (Renilla luciferase in nef, Gag P373S)
Test: HIV Cell Culture Assay (luciferase reporter virus in MT-2 cells)
Format: cell-based
Conditions: NL43
Outline: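 Cells grown in serum-supplemented RPMI were exposed to graded inhibitor concentrations during a 4-5 day infection. Antiviral effect was then derived from luminescence after adding a combined lysis and dual-luciferase substrate mixture to each well.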

Structure (SMILES)	EC50 [nM]
C=C(C)[C@@H]1CC[C@]2(C(=O)Nc3nc(C(=O)O)c(C)s3)CC[C@]3(C)[C@H](CC[C@@H]4[C@@]5(C)CC=C(c6ccc(C(=O)O)cc6)C(C)(C)[C@@H]5CC[C@]43C)[C@@H]12 [Example 47, 2-((1R,3aS,5aR,5bR,7aR,11aS,11bR,13aR,13bR)-9-(4-carboxyphenyl)-5a,5b,8,8,11a-pentamethyl-1-(prop-1-en-2-yl)-2,3,3a,4,5,5a,5b,6,7,7a,8,11,11a,11b,12,13,13a,13b-octadecahydro-1H-cyclopenta[a]chrysene-3a-carboxamido)-5-methylthiazole-4-carboxylic acid]	8.7
C=C(C)[C@@H]1CC[C@]2(C(=O)NCCCN(CC)CC(=O)O)CC[C@]3(C)[C@H](CC[C@@H]4[C@@]5(C)CC=C(c6ccc(C(=O)O)cc6)C(C)(C)[C@@H]5CC[C@]43C)[C@@H]12 [Example 102, 4-((1R,3aS,5aR,5bR,7aR,11aS,11bR,13aR,13bR)-3a-(3-((carboxymethyl)(ethyl)amino)propylcarbamoyl)-5a,5b,8,8,11a-pentamethyl-1-(prop-1-en-2-yl)-2,3,3a,4,5,5a,5b,6,7,7a,8,11,11a,11b,12,13,13a,13b-octadecahydro-1H-cyclopenta[a]chrysen-9-yl)benzoic acid]	10.5

Same assay, conditions: NL43, read-out: EC50 Group

Structure (SMILES)	EC50 [nM]
C=C(C)[C@@H]1CC[C@]2(C(=O)NCc3ccccn3)CC[C@]3(C)[C@H](CC[C@@H]4[C@@]5(C)CC=C(c6ccc(C(=O)O)cc6)C(C)(C)[C@@H]5CC[C@]43C)[C@@H]12 [Example 2, 4-((1R,3aS,5aR,5bR,7aR,11aS,11bR,13aR,13bR)-5a,5b,8,8,11a-pentamethyl-1-(prop-1-en-2-yl)-3a-(pyridin-2-ylmethylcarbamoyl)-2,3,3a,4,5,5a,5b,6,7,7a,8,11,11a,11b,12,13,13a,13b-octadecahydro-1H-cyclopenta[a]chrysen-9-yl)benzoic acid]	< 100
C=C(C)[C@@H]1CC[C@]2(C(=O)N[C@@H](C)CN(C)C)CC[C@]3(C)[C@H](CC[C@@H]4[C@@]5(C)CC=C(c6ccc(C(=O)O)cc6)C(C)(C)[C@@H]5CC[C@]43C)[C@@H]12 [Example 68, 4-((1R,3aS,5aR,5bR,7aR,11aS,11bR,13aR,13bR)-3a-((S)-1-(dimethylamino)propan-2-ylcarbamoyl)-5a,5b,8,8,11a-pentamethyl-1-(prop-1-en-2-yl)-2,3,3a,4,5,5a,5b,6,7,7a,8,11,11a,11b,12,13,13a,13b-octadecahydro-1H-cyclopenta[a]chrysen-9-yl)benzoic acid]	< 100
C=C(C)[C@@H]1CC[C@]2(C(=O)NC(C)c3nnc(C)[nH]3)CC[C@]3(C)[C@H](CC[C@@H]4[C@@]5(C)CC=C(c6ccc(C(=O)O)cc6)C(C)(C)[C@@H]5CC[C@]43C)[C@@H]12 (stereo partly drawn) [Example 44, 4-((1R,3aS,5aR,5bR,7aR,11aS,11bR,13aR,13bR)-5a,5b,8,8,11a-pentamethyl-3a-(1-(5-methyl-4H-1,2,4-triazol-3-yl)ethylcarbamoyl)-1-(prop-1-en-2-yl)-2,3,3a,4,5,5a,5b,6,7,7a,8,11,11a,11b,12,13,13a,13b-octadecahydro-1H-cyclopenta[a]chrysen-9-yl)benzoic acid]	< 100
C=C(C)[C@@H]1CC[C@]2(C(=O)NCCN(CCC)CCC(=O)O)CC[C@]3(C)[C@H](CC[C@@H]4[C@@]5(C)CC=C(c6ccc(C(=O)O)cc6)C(C)(C)[C@@H]5CC[C@]43C)[C@@H]12 [Example 93, 4-((1R,3aS,5aR,5bR,7aR,11aS,11bR,13aR,13bR)-3a-(2-((2-carboxyethyl)(propyl)amino)ethylcarbamoyl)-5a,5b,8,8,11a-pentamethyl-1-(prop-1-en-2-yl)-2,3,3a,4,5,5a,5b,6,7,7a,8,11,11a,11b,12,13,13a,13b-octadecahydro-1H-cyclopenta[a]chrysen-9-yl)benzoic acid]	< 100
C=C(C)[C@@H]1CC[C@]2(C(=O)NCCc3ccc(OC)cc3)CC[C@]3(C)[C@H](CC[C@@H]4[C@@]5(C)CC=C(c6ccc(C(=O)O)cc6)C(C)(C)[C@@H]5CC[C@]43C)[C@@H]12 [Example 4, 4-((1R,3aS,5aR,5bR,7aR,11aS,11bR,13aR,13bR)-3a-(4-methoxyphenethylcarbamoyl)-5a,5b,8,8,11a-pentamethyl-1-(prop-1-en-2-yl)-2,3,3a,4,5,5a,5b,6,7,7a,8,11,11a,11b,12,13,13a,13b-octadecahydro-1H-cyclopenta[a]chrysen-9-yl)benzoic acid]	< 100
C=C(C)[C@@H]1CC[C@]2(C(=O)NCc3cccnc3)CC[C@]3(C)[C@H](CC[C@@H]4[C@@]5(C)CC=C(c6ccc(C(=O)O)cc6)C(C)(C)[C@@H]5CC[C@]43C)[C@@H]12 [Example 29, 4-((1R,3aS,5aR,5bR,7aR,11aS,11bR,13aR,13bR)-5a,5b,8,8,11a-pentamethyl-1-(prop-1-en-2-yl)-3a-(pyridin-3-ylmethylcarbamoyl)-2,3,3a,4,5,5a,5b,6,7,7a,8,11,11a,11b,12,13,13a,13b-octadecahydro-1H-cyclopenta[a]chrysen-9-yl)benzoic acid]	< 100
C=C(C)[C@@H]1CC[C@]2(C(=O)NCCc3cccnc3)CC[C@]3(C)[C@H](CC[C@@H]4[C@@]5(C)CC=C(c6ccc(C(=O)O)cc6)C(C)(C)[C@@H]5CC[C@]43C)[C@@H]12 [Example 3, 4-((1R,3aS,5aR,5bR,7aR,11aS,11bR,13aR,13bR)-5a,5b,8,8,11a-pentamethyl-1-(prop-1-en-2-yl)-3a-(2-(pyridin-3-yl)ethylcarbamoyl)-2,3,3a,4,5,5a,5b,6,7,7a,8,11,11a,11b,12,13,13a,13b-octadecahydro-1H-cyclopenta[a]chrysen-9-yl)benzoic acid]	< 100
C=C(C)[C@@H]1CC[C@]2(C(=O)N3CCCC3C(=O)O)CC[C@]3(C)[C@H](CC[C@@H]4[C@@]5(C)CC=C(c6ccc(C(=O)O)cc6)C(C)(C)[C@@H]5CC[C@]43C)[C@@H]12 (stereo partly drawn) [Example 128, 1-((1R,3aS,5aR,5bR,7aR,11aS,11bR,13aR,13bR)-9-(4-carboxyphenyl)-5a,5b,8,8,11a-pentamethyl-1-(prop-1-en-2-yl)-2,3,3a,4,5,5a,5b,6,7,7a,8,11,11a,11b,12,13,13a,13b-octadecahydro-1H-cyclopenta[a]chrysene-3a-carbonyl)pyrrolidine-2-carboxylic acid]	< 100
C=C(C)[C@@H]1CC[C@]2(C(=O)N3CCC(O)CC3)CC[C@]3(C)[C@H](CC[C@@H]4[C@@]5(C)CC=C(c6ccc(C(=O)O)cc6)C(C)(C)[C@@H]5CC[C@]43C)[C@@H]12 [Example 22, 4-((1R,3aS,5aR,5bR,7aR,11aS,11bR,13aR,13bR)-3a-(4-hydroxypiperidine-1-carbonyl)-5a,5b,8,8,11a-pentamethyl-1-(prop-1-en-2-yl)-2,3,3a,4,5,5a,5b,6,7,7a,8,11,11a,11b,12,13,13a,13b-octadecahydro-1H-cyclopenta[a]chrysen-9-yl)benzoic acid]	< 100
